For one molecule, IC50 results are on record in article PMC11052001, “A Novel IRAK4 Inhibitor DW18134 Ameliorates Peritonitis and Inflammatory Bowel Disease” (Molecules, 2024).

This assay concerns the target T1, IRAK4 (Homo sapiens, UniProt Q9NWZ3).
T1 sequence (Q9NWZ3 1-460): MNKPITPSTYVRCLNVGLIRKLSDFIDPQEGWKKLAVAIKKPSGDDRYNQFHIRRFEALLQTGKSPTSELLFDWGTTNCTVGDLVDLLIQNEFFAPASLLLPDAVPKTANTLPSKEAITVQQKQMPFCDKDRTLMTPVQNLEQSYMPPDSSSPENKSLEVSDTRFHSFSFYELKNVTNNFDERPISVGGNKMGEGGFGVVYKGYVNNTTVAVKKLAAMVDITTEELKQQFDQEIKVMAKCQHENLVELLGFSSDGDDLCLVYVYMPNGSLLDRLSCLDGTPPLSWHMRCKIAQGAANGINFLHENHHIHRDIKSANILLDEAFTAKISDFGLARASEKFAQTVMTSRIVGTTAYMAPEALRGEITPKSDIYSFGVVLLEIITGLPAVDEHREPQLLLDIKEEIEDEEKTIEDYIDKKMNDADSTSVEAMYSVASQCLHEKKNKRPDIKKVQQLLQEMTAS
In words: enzymatic kinase activity assay. Format: biochemical. As to conditions: read-out: DW18134.

Consider `CC1(C)Cc2cc(NC(=O)c3coc(-c4ccnc(N)c4)n3)c(-c3ccncc3)cc2O1` [DW18134], for which the IC50 was 11.2 ± 2 nM.
